Our source for the Ratio, LD90 and LD50 values is ChEMBL document CHEMBL3046781, “Resistance of Helicoverpa assulta (Guenée) (Lepidoptera: Noctuidae) to fenvalerate, phoxim and methomyl in China” (2009).

Assay type in all cases: functional
Assay [1] relates to Helicoverpa assulta. As to the kind of experiment: Resistance factor, ratio of LD50 for sixth-instar larvae of Helicoverpa assulta SD1 to LD50 for sixth-instar larvae of Helicoverpa assulta at 1.8 to 183360 mg/l.
Assay [2] relates to Helicoverpa assulta. Put plainly: Resistance factor, ratio of LD50 for sixth-instar larvae of Helicoverpa assulta YN5 to LD50 for sixth-instar larvae of Helicoverpa assulta at 1.8 to 183360 mg/l.
The subject of assay [3] is Helicoverpa assulta. As to the kind of experiment: Insecticidal activity against sixth-instar larvae of Helicoverpa assulta YN2 at 1.8 to 183360 mg/l after 48 hr by chi-squared analysis.
For assay [4], the system named is Helicoverpa assulta. Put plainly: Resistance factor, ratio of LD50 for sixth-instar larvae of Helicoverpa assulta GZ2 to LD50 for sixth-instar larvae of Helicoverpa assulta at 1.8 to 183360 mg/l.
For assay [5], the system named is Helicoverpa assulta. Put plainly: Resistance factor, ratio of LD50 for sixth-instar larvae of Helicoverpa assulta YN2 to LD50 for sixth-instar larvae of Helicoverpa assulta at 1.8 to 183360 mg/l.
Assay [6] has as its system Helicoverpa assulta. As to the kind of experiment: Insecticidal activity against sixth-instar larvae of Helicoverpa assulta at 1.8 to 183360 mg/l after 48 hr by chi-squared analysis.
For assay [7], the system named is Helicoverpa assulta. Put plainly: Insecticidal activity against sixth-instar larvae of Helicoverpa assulta FJ3 at 1.8 to 183360 mg/l after 48 hr by chi-squared analysis.
The subject of assay [8] is Helicoverpa assulta. As to the kind of experiment: Insecticidal activity against sixth-instar larvae of Helicoverpa assulta YN7 at 1.8 to 183360 mg/l after 48 hr by chi-squared analysis.
Assay [9] deals with Helicoverpa assulta. Put plainly: Resistance factor, ratio of LD50 for sixth-instar larvae of Helicoverpa assulta GZ4 to LD50 for sixth-instar larvae of Helicoverpa assulta at 1.8 to 183360 mg/l.
The subject of assay [10] is Helicoverpa assulta. As to the kind of experiment: Insecticidal activity against sixth-instar larvae of Helicoverpa assulta YN4 at 21 to 3390 mg/l after 48 hr by chi-squared analysis.
Assay [11] relates to Helicoverpa assulta. Put plainly: Insecticidal activity against sixth-instar larvae of Helicoverpa assulta YN5 at 21 to 3390 mg/l after 48 hr by chi-squared analysis.
In assay [12] the test system is Helicoverpa assulta. Put plainly: Insecticidal activity against sixth-instar larvae of Helicoverpa assulta YN7 at 21 to 3390 mg/l after 48 hr by chi-squared analysis.
For assay [13], the system named is Helicoverpa assulta. Put plainly: Insecticidal activity against sixth-instar larvae of Helicoverpa assulta FJ1 at 21 to 3390 mg/l after 48 hr by chi-squared analysis.
Assay [14] concerns Helicoverpa assulta. Put plainly: Insecticidal activity against sixth-instar larvae of Helicoverpa assulta YN8 at 21 to 3390 mg/l after 48 hr by chi-squared analysis.
For assay [15], the system named is Helicoverpa assulta. As to the kind of experiment: Insecticidal activity against sixth-instar larvae of Helicoverpa assulta AH1 at 21 to 3390 mg/l after 48 hr by chi-squared analysis.
In assay [16] the test system is Helicoverpa assulta. Put plainly: Insecticidal activity against sixth-instar larvae of Helicoverpa assulta HN2 at 21 to 3390 mg/l after 48 hr by chi-squared analysis.
Assay [17] has as its system Helicoverpa assulta. As to the kind of experiment: Resistance factor, ratio of LD50 for sixth-instar larvae of Helicoverpa assulta YN2 to LD50 for sixth-instar larvae of Helicoverpa assulta at 21 to 3390 mg/l.
Assay [18] concerns Helicoverpa assulta. As to the kind of experiment: Insecticidal activity against sixth-instar larvae of Helicoverpa assulta AH3 at 21 to 3390 mg/l after 48 hr by chi-squared analysis.
Assay [19] has as its system Helicoverpa assulta. Put plainly: Resistance factor, ratio of LD50 for sixth-instar larvae of Helicoverpa assulta FJ3 to LD50 for sixth-instar larvae of Helicoverpa assulta at 21 to 3390 mg/l.
The test system of assay [20] is Helicoverpa assulta. Put plainly: Insecticidal activity against sixth-instar larvae of Helicoverpa assulta GZ3 at 21 to 3390 mg/l after 48 hr by chi-squared analysis.
Assay [21] has as its system Helicoverpa assulta. As to the kind of experiment: Resistance factor, ratio of LD50 for sixth-instar larvae of Helicoverpa assulta YN7 to LD50 for sixth-instar larvae of Helicoverpa assulta at 21 to 3390 mg/l.
Assay [22] relates to Helicoverpa assulta. Put plainly: Resistance factor, ratio of LD50 for sixth-instar larvae of Helicoverpa assulta FJ1 to LD50 for sixth-instar larvae of Helicoverpa assulta at 21 to 3390 mg/l.
Assay [23] has as its system Helicoverpa assulta. Put plainly: Resistance factor, ratio of LD50 for sixth-instar larvae of Helicoverpa assulta SD2 to LD50 for sixth-instar larvae of Helicoverpa assulta at 21 to 3390 mg/l.
For assay [24], the system named is Helicoverpa assulta. As to the kind of experiment: Resistance factor, ratio of LD50 for sixth-instar larvae of Helicoverpa assulta AH1 to LD50 for sixth-instar larvae of Helicoverpa assulta at 21 to 3390 mg/l.
The subject of assay [25] is Helicoverpa assulta. Put plainly: Insecticidal activity against sixth-instar larvae of Helicoverpa assulta at 21 to 3390 mg/l after 48 hr by chi-squared analysis.
Assay [26] deals with Helicoverpa assulta. Put plainly: Insecticidal activity against sixth-instar larvae of Helicoverpa assulta at 39 to 12630 mg/l after 48 hr by chi-squared analysis.
Assay [27] deals with Helicoverpa assulta. Put plainly: Insecticidal activity against sixth-instar larvae of Helicoverpa assulta AH2 at 39 to 12630 mg/l after 48 hr by chi-squared analysis.
Assay [28] concerns Helicoverpa assulta. As to the kind of experiment: Resistance factor, ratio of LD50 for sixth-instar larvae of Helicoverpa assulta FJ1 to LD50 for sixth-instar larvae of Helicoverpa assulta at 39 to 12630 mg/l.
Assay [29] has as its system Helicoverpa assulta. As to the kind of experiment: Insecticidal activity against sixth-instar larvae of Helicoverpa assulta YN1 at 39 to 12630 mg/l after 48 hr by chi-squared analysis.
Assay [30] has as its system Helicoverpa assulta. Put plainly: Resistance factor, ratio of LD50 for sixth-instar larvae of Helicoverpa assulta YN8 to LD50 for sixth-instar larvae of Helicoverpa assulta at 39 to 12630 mg/l.
Assay [31] has as its system Helicoverpa assulta. Put plainly: Insecticidal activity against sixth-instar larvae of Helicoverpa assulta GZ2 at 39 to 12630 mg/l after 48 hr by chi-squared analysis.
For assay [32], the system named is Helicoverpa assulta. As to the kind of experiment: Insecticidal activity against sixth-instar larvae of Helicoverpa assulta YN5 at 39 to 12630 mg/l after 48 hr by chi-squared analysis.
Assay [33] deals with Helicoverpa assulta. Put plainly: Insecticidal activity against sixth-instar larvae of Helicoverpa assulta HN2 at 39 to 12630 mg/l after 48 hr by chi-squared analysis.
Assay [34] has as its system Helicoverpa assulta. As to the kind of experiment: Resistance factor, ratio of LD50 for sixth-instar larvae of Helicoverpa assulta AH3 to LD50 for sixth-instar larvae of Helicoverpa assulta at 39 to 12630 mg/l.
Assay [35] deals with Helicoverpa assulta. Put plainly: Resistance factor, ratio of LD50 for sixth-instar larvae of Helicoverpa assulta GZ5 to LD50 for sixth-instar larvae of Helicoverpa assulta at 39 to 12630 mg/l.

A word on the LD50: it is the dose at which mortality reaches 50%. Read a low LD50 as a more toxic substance. With `CC(C)C(C(=O)OC(C#N)c1cccc(Oc2ccccc2)c1)c1ccc(Cl)cc1` (stereo not given) [FENVALERATE], the Ratio in assay [1] is on record as 9.8; in [2], 8816; in assay [4] it was 1042; in assay [5] it was 1313; in assay [9] it was 347. For the same compound, the LD90 in [3] is 673 µg/g; in [6], 0.723 µg/g; in assay [7] it was 3.39 µg/g; in assay [8], 507 µg/g. In addition, the LD50 in assay [3] (Helicoverpa assulta, YN2, 48 h) worked out at 213 mg/kg; in assay [6] (Helicoverpa assulta, 48 h) it was 0.162 mg/kg; in [7] (Helicoverpa assulta, FJ3, 48 h) it was 1.47 mg/kg; in assay [8] (Helicoverpa assulta, YN7, 48 h) it was 249 mg/kg.

For `CNC(=O)ON=C(C)SC` [METHOMYL], the LD90 in assay [10] turned out to be 62.2 µg/g; in assay [11] it was 37.7 µg/g; in assay [12], 143 µg/g; in [13], 67.8 µg/g; in assay [14], 185 µg/g; in assay [15], 168 µg/g. Besides, the LD90 amounted to 24.2 µg/g in [16], 44.7 µg/g in assay [18], 66.7 µg/g in assay [20] and 4.1 µg/g in assay [25]. Further, the LD50 in [10] (Helicoverpa assulta, YN4, 48 h) was 16.7 mg/kg; in [11] (Helicoverpa assulta, YN5, 48 h), 14.3 mg/kg; in [12] (Helicoverpa assulta, YN7, 48 h) it was 39 mg/kg; in assay [13] (Helicoverpa assulta, FJ1, 48 h), 21.1 mg/kg; in assay [14] (Helicoverpa assulta, YN8, 48 h) it was 33.3 mg/kg; in assay [15] (Helicoverpa assulta, AH1, 48 h), 53.6 mg/kg. Moreover, the median lethal dose (LD50) in assay [16] (Helicoverpa assulta, HN2, 48 h) came out at 4.24 mg/kg; in assay [18] (Helicoverpa assulta, AH3, 48 h), 18.4 mg/kg; in assay [20] (Helicoverpa assulta, GZ3, 48 h), 20.8 mg/kg; in [25] (Helicoverpa assulta, 48 h), 1.45 mg/kg. The Ratio in assay [17] was 18.4; in assay [19], 16.3; in [21] it was 27; in assay [22] it was 14.6; in assay [23], 6.17; in assay [24], 37.1.

In the case of `CCOP(=S)(OCC)O/N=C(\C#N)c1ccccc1` [PHOXIM], the LD90 was determined as 5.54 µg/g in [26]; 33.5 µg/g in assay [27]; 57.3 µg/g in [29]; 101 µg/g in [31]; 83.8 µg/g in assay [32]; 19.9 µg/g in assay [33]. Besides, the LD50 was 2.34 mg/kg in [26] (Helicoverpa assulta, 48 h); 16.7 mg/kg in assay [27] (Helicoverpa assulta, AH2, 48 h); 20.4 mg/kg in assay [29] (Helicoverpa assulta, YN1, 48 h); 25.3 mg/kg in assay [31] (Helicoverpa assulta, GZ2, 48 h); 25.7 mg/kg in [32] (Helicoverpa assulta, YN5, 48 h); 8.22 mg/kg in assay [33] (Helicoverpa assulta, HN2, 48 h). Moreover, the Ratio is 7.13 in [28], 17.2 in [30], 14.3 in assay [34] and 7.1 in [35].
